Experimental data: patent US8853418B2, “Cyclopentylpyrazoles as N-type calcium channel blockers” (Janssen Pharmaceutica NV, priority 2012, dated 2014)
pIC50: −log10 of the molar value. Read-outs that look alike come from different tables or passages of the source.

Legend:
[1] = tested on: Complete Freund's Adjuvant (CFA)-Induced Hyperalgesia; assay: Complete Freund's Adjuvant (CFA)-Induced Hyperalgesia, radiant heat; type: in vivo, Sprague-Dawley rats; details: rat CFA radiant heat model of inflammatory pain; FIG. 1
[2] = biological target: N-type calcium channel (α1B (Cav2.2), β3 and α2δ subunits) (Homo sapiens, UniProt Q00975); assay: Functional Assay: Antagonism of N-Type Calcium Channel (FDSS calcium mobilization, KCl depolarization); type: cell-based; details: for pIC50: HEK cell line, 50 mM KCl depolarization, six-point concentration-response, read-out: FDSS IC50
Sequence of N-type calcium channel (α1B (Cav2.2), β3 and α2δ subunits) (Q00975 whole entry): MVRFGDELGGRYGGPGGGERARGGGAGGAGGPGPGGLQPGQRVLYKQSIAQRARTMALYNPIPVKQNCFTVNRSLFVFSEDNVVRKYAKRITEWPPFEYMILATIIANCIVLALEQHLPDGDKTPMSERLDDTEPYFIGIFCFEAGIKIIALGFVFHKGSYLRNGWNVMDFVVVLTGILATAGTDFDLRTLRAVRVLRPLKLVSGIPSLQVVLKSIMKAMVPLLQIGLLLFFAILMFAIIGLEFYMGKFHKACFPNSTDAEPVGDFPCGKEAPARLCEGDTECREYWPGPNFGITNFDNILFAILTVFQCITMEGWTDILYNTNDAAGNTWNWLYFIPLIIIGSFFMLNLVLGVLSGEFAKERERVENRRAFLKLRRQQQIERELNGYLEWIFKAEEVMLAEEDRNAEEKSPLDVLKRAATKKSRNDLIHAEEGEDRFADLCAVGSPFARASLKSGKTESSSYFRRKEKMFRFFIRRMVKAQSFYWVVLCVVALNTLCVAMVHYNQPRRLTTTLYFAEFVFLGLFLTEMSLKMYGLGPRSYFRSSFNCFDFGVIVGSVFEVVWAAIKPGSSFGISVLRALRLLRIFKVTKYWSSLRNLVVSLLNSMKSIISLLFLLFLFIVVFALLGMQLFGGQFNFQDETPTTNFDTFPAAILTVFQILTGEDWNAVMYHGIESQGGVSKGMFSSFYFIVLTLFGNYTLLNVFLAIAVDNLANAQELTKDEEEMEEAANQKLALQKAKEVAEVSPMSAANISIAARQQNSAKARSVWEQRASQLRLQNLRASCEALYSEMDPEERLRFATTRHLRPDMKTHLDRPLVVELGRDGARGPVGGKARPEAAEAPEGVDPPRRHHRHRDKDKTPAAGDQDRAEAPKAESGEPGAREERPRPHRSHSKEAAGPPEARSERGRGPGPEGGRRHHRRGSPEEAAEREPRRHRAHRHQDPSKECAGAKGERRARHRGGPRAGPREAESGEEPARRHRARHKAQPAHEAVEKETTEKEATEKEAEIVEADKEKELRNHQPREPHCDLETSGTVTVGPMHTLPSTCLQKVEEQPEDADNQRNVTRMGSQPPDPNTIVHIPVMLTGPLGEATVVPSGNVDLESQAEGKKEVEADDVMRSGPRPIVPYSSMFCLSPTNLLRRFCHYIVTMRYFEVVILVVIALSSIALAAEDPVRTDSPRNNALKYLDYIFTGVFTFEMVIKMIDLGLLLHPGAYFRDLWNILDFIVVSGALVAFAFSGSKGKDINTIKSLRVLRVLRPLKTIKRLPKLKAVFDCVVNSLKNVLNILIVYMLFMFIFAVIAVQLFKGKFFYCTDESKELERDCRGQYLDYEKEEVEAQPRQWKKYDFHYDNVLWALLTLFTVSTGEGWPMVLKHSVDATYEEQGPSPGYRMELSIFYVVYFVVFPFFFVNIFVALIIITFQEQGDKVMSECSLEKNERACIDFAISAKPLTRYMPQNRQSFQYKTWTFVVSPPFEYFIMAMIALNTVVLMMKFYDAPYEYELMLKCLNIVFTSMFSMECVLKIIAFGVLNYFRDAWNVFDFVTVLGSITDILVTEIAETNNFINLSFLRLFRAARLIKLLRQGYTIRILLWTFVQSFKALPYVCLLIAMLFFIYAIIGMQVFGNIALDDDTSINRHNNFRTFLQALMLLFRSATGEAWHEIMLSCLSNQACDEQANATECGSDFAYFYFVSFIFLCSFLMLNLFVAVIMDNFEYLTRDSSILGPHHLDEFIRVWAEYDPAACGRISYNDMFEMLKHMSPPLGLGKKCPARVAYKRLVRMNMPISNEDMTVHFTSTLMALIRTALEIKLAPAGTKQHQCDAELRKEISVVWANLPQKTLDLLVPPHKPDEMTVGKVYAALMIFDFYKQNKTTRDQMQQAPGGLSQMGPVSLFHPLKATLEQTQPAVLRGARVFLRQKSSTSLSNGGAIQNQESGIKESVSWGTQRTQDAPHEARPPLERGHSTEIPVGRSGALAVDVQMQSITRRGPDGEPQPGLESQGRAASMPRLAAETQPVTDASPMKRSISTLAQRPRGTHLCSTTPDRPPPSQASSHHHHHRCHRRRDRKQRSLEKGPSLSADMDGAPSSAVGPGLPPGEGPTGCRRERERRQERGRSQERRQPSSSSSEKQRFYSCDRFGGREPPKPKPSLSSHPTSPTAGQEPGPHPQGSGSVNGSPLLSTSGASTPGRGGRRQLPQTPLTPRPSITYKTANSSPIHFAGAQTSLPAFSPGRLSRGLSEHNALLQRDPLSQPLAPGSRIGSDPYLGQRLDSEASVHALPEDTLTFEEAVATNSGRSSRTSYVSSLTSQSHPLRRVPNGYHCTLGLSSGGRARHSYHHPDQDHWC
Sequence of N-type calcium channel (α1B (Cav2.2), β3 and α2δ subunits) (P54284 whole entry partner): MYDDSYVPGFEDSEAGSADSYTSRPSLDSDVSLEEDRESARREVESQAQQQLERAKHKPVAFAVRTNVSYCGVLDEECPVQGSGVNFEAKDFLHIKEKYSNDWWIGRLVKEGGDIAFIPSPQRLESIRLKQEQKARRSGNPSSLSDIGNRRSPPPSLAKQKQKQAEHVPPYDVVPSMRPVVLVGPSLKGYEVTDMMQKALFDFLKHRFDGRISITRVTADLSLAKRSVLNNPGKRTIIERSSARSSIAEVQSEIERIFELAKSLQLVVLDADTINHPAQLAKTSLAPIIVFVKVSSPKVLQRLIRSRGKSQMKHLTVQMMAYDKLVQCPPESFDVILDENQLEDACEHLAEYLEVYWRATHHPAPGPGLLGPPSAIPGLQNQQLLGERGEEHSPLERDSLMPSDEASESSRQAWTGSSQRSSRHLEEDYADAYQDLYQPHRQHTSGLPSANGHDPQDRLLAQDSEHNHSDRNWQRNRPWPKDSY
Sequence of N-type calcium channel (α1B (Cav2.2), β3 and α2δ subunits) (P54289 25-946 partner limits assumed): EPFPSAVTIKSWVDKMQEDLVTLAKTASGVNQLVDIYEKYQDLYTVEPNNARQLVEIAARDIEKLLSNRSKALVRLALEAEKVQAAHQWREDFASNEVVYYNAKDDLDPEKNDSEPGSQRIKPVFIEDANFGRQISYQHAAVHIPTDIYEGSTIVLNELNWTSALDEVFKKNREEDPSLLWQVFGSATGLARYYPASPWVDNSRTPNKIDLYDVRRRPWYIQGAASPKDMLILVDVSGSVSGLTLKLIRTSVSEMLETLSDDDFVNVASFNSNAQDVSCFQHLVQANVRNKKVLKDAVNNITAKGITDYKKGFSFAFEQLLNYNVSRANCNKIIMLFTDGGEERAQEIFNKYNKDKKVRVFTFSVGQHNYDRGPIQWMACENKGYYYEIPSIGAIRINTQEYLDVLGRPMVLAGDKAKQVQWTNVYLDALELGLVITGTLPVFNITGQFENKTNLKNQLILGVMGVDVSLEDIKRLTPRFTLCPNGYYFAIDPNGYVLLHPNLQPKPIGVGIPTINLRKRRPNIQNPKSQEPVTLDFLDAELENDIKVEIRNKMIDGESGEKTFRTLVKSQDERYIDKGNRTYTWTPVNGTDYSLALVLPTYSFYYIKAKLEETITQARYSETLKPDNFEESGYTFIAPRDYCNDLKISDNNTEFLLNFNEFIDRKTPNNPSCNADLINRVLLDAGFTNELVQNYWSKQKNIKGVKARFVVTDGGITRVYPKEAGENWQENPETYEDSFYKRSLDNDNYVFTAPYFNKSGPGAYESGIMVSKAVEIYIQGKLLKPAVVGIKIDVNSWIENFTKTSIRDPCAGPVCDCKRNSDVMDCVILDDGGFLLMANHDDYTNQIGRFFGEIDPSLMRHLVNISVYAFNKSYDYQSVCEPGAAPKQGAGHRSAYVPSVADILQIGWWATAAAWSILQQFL
Sequence of N-type calcium channel (α1B (Cav2.2), β3 and α2δ subunits) (P54289 947-1103 partner limits assumed): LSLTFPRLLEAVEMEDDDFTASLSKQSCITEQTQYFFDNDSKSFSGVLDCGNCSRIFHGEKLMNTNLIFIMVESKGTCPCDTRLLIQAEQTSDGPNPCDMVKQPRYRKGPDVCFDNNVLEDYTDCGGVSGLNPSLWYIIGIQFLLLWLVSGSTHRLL
Procedure, shortened: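 HEK cells stably co-expressing α1B (Cav2.2), β3 and α2δ were loaded with calcium dye, then given compound with fluorescence recorded for 5 min before 50 mM KCl depolarisation and 3 min more reading. IC50 came from six-point curves of maximal fluorescence, normalised to KCl maximum and buffer minimum.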

N-type calcium channel = N-type calcium channel (Homo sapiens, UniProt Q00975); assay: Automated Electrophysiology Assay (QPatch-HT whole-cell patch clamp; low- and high-frequency stimulation); type: cell-based
Sequence of N-type calcium channel (Q00975 whole entry): as the sequence (Q00975 whole entry) above
Sequence of N-type calcium channel (P54284 whole entry partner): as the sequence (P54284 whole entry partner) above
Sequence of N-type calcium channel (P54289 25-946 partner limits assumed): as the sequence (P54289 25-946 partner limits assumed) above
Sequence of N-type calcium channel (P54289 947-1103 partner limits assumed): as the sequence (P54289 947-1103 partner limits assumed) above

[3] = high-frequency stimulation (15th pulse), read-out: QPatch at High Frequency % Inhibition
[4] = low frequency, read-out: QPatch at Low Frequency % Inhibition

SMILES	antihyperalgesic effect [1]	inhibition at 0.33 µM [2] [%]	pIC50 [2]	inhibition at 0.1 µM (N-type calcium channel; [3]) [%]	inhibition at 0.1 µM (N-type calcium channel; [4]) [%]	inhibition at 1 µM (N-type calcium channel; [3]) [%]	inhibition at 1 µM (N-type calcium channel; [4]) [%]
COc1ccccc1-n1nc2c(c1-c1ccc(Cl)cc1)CC1(C2)OCC(C)(C)CO1 [Compound 71, 3-(4-chlorophenyl)-2-(2-methoxyphenyl)-5′,5′-dimethyl-2,6-dihydro-4H-spiro[cyclopenta[c]pyrazole-5,2′-[1,3]dioxane]]	antihyperalgesic effect	89	7.89	37	21	–	–
COc1ccccc1-n1nc2c(c1-c1ccc(C#N)cc1)C[C@H](n1cc(C3CCCC3)nn1)C2 [Compound 124, 4-[(5S)-5-(4-cyclopentyl-1H-1,2,3-triazol-1-yl)-2-(2-methoxyphenyl)-2,4,5,6-tetrahydrocyclopenta[c]pyrazol-3-yl]benzonitrile]	–	88	7.37	–	–	73	68
COc1ccccc1-n1nc2c(c1-c1ccc(C#N)cc1)C[C@H](n1cc(CC(C)C)nn1)C2 [Compound 127, 4-{(5S)-2-(2-methoxyphenyl)-5-[4-(2-methylpropyl)-1H-1,2,3-triazol-1-yl]-2,4,5,6-tetrahydrocyclopenta[c]pyrazol-3-yl}benzonitrile]	–	97	7.77	26	13	–	–
COc1ccccc1-n1nc2c(c1-c1ccc(C#N)cc1)C[C@H](n1cc(C(C)(C)C)nn1)C2 [Compound 130, 4-[(5S)-5-(4-tert-butyl-1H-1,2,3-triazol-1-yl)-2-(2-methoxyphenyl)-2,4,5,6-tetrahydrocyclopenta[c]pyrazol-3-yl]benzonitrile]	–	92	7.30	–	–	57	39
CCc1ncn([C@@H]2Cc3nn(-c4ccccc4OC)c(-c4ccc(C#N)cc4)c3C2)c1CC [Compound 139, 4-[(5S)-5-(4,5-diethyl-1H-imidazol-1-yl)-2-(2-methoxyphenyl)-2,4,5,6-tetrahydrocyclopenta[c]pyrazol-3-yl]benzonitrile]	–	87	7.43	–	–	66	72
